Tests used:
[1] = molecular target: Angiopoietin-1 receptor (Homo sapiens, UniProt Q02763); test: Inhibition of Tie2 kinase by autophosphorylation assay; type: functional
[2] = Inhibition of P38 kinase; set-up: species or system Homo sapiens
[3] = test system: MOPC 315; test: Efficacy in mouse MOPC315 cells xenografted mouse assessed as delay in tumor growth; type: functional, cell-based
[4] = test system: Mus musculus; test: Reduction in bFGF-induced angiogenesis in Matrigel mouse model at 25 mg/kg, ip bid; type: functional; set-up: scale not given: the % may be the effect or the level left; details: route intraperitoneal
[5] = test system: Mus musculus; test: Reduction in bFGF-induced angiogenesis in Matrigel mouse model at 50 mg/kg, ip bid; type: functional; set-up: scale not given: the % may be the effect or the level left; details: route intraperitoneal

Sequence of Angiopoietin-1 receptor (Q02763 whole entry): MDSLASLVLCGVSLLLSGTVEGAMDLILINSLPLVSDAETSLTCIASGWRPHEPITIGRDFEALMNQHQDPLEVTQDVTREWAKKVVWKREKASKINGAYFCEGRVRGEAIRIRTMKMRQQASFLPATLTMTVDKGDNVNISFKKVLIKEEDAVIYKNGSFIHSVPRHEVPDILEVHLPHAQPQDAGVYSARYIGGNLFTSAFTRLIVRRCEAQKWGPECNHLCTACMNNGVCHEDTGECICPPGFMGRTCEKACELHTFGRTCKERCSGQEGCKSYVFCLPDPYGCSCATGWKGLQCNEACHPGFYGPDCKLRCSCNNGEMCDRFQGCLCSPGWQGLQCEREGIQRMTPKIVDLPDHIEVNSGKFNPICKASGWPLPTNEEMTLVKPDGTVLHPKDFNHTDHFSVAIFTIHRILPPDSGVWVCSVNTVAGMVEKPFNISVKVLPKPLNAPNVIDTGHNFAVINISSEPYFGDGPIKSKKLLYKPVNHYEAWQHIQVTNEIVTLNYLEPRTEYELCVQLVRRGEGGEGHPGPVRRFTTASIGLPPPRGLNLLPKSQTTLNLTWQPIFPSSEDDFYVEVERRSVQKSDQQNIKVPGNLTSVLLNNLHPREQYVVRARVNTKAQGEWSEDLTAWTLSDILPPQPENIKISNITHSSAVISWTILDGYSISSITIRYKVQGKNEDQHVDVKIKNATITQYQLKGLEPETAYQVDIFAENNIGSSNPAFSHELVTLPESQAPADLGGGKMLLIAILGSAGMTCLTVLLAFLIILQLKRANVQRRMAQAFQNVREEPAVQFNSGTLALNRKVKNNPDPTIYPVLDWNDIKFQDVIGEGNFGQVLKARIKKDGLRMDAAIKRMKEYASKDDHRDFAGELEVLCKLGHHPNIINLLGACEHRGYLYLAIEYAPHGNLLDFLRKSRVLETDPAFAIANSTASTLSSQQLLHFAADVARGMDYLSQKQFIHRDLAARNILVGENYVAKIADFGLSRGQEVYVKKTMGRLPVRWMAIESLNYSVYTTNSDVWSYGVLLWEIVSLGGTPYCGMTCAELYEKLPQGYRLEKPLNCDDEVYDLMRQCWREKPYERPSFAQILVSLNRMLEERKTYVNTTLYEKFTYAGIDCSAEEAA

C[S+]([O-])c1ccc(-c2nc(-c3ccc4ccccc4c3)c(-c3ccncc3)[nH]2)cc1 (stereo not given)
IC50 [1]: 0.3 µM | IC50 [2]: 0.3 µM

Cc1ccc2cc(-c3nc(-c4ccc([S+](C)[O-])cc4)[nH]c3-c3ccncc3)ccc2c1 (stereo not given)
IC50 [1]: 0.219 µM | IC50 [2]: 0.741 µM

COc1ccc2cc(-c3nc(-c4ccc([S+](C)[O-])cc4)n(C)c3-c3ccncc3)ccc2c1 (stereo not given)
IC50 [1]: 20 µM | IC50 [2]: 16 µM

CCCn1c(-c2ccc([S+](C)[O-])cc2)nc(-c2ccncc2)c1-c1ccc2cc(OC)ccc2c1 (stereo not given)
IC50 [1]: 0.437 µM | IC50 [2]: > 16 µM

COc1ccc2cc(-c3nc(-c4ccc([S+](C)[O-])cc4)[nH]c3-c3ccncc3)ccc2c1 (stereo not given)
IC50 [1]: 0.25 µM | IC50 [2]: 50 µM | Activity [3]: Dose-dependent effect | Activity [4]: 41% | Activity [5]: 70%

COc1ccc2cc(-c3c(-c4ccncc4)nc(-c4ccc([S+](C)[O-])cc4)n3CC(C)C)ccc2c1 (stereo not given)
IC50 [1]: 3.89 µM | IC50 [2]: > 16 µM

C[S+]([O-])c1ccc(-c2nc(-c3ccc4cc(-c5ccccc5)ccc4c3)c(-c3ccncc3)[nH]2)cc1 (stereo not given)
IC50 [1]: 5.5 µM | IC50 [2]: 16.5 µM

CCn1c(-c2ccc([S+](C)[O-])cc2)nc(-c2ccncc2)c1-c1ccc2cc(OC)ccc2c1 (stereo not given)
IC50 [1]: 5.37 µM | IC50 [2]: > 16 µM

COc1ccc2cc(-c3c(-c4ccncc4)nc(-c4ccc([S+](C)[O-])cc4)n3C)ccc2c1 (stereo not given)
IC50 [1]: 0.06 µM | IC50 [2]: 16 µM | Activity [4]: 5% | Activity [5]: 30%

C[S+]([O-])c1ccc(-c2nc(-c3ccc4cc(Br)ccc4c3)c(-c3ccncc3)[nH]2)cc1 (stereo not given)
IC50 [1]: 0.339 µM | IC50 [2]: 4.57 µM

Source: ChEMBL document CHEMBL1149658, “Pyridinylimidazole inhibitors of Tie2 kinase” (Bioorg Med Chem Lett, 2007)
